# From patent US7700272B2, “Polynucleotides encoding acetylcholine-gated chloride channel subunits of Caenorhabditis elegans” (priority 2004, dated 2010)
# Entries after “also recorded” stand apart in the source; their conditions may differ. Read-outs that look alike come from different tables or passages of the source. Marks after values point to notes of the source that are not given here.
# What was measured:
# [1] = target: T1, ACC-1G6.4 channel (Caenorhabditis elegans, UniProt Q21005); assay: Two-electrode voltage-clamp of Xenopus oocytes expressing ACC-1G6.4 homomeric channel; assay type: cell-based, C. elegans; conditions: for response (in words): 1 mM
# T1 construct: Agonist: percentage of maximal acetylcholine-elicited response; other: compound at 0.1 mM; Agonist: percentage of maximal acetylcholine-elicited response; other: compound at 0.2 mM; other: compound at 0.4 mM; other: compound at 0.8 mM; Agonist: percentage of maxim
# T1 sequence (Q21005 whole entry, looked up): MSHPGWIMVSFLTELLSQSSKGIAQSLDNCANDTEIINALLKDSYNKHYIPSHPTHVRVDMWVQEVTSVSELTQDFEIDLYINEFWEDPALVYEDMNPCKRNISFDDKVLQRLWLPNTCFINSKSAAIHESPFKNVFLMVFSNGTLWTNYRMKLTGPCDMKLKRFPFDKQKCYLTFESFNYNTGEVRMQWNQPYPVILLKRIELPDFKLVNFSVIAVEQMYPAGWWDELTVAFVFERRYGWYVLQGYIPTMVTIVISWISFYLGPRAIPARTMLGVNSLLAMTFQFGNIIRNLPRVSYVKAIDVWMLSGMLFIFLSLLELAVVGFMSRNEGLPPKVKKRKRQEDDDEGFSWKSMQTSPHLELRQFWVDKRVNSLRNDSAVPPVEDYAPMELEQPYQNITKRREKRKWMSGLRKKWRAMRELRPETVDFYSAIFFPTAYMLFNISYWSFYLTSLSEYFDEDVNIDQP
# Source text: (§1) For capped cRNA synthesis, cDNAs were subcloned into the pT7N vector, which contains a T7 RNA polymerase promoter, the 5′- and 3′-UTR of Xenopus laevis beta-globin, and an encoded poly(A+) tail (Cary R B, Klymkowsky M W, Evans R M, Domingo A, Dent J A, Backhus L E (1994) Vimentin's tail interacts with actin-containing structures in vivo. J Cell Sci 107:1609-1622.). The pT7NcDNA constructs were linearized with Sal I (ACC-2D6.3) or BamHI (ACC-1G6.4) and transcribed using the MEGAscript Kit (Ambion, Austin, Tex., USA). Synthesized cRNAs were recovered by LiCl precipitation and resuspended in nuclease-free H2O at final concentration of 1 microgram/ml.
# (§2) Oocytes were harvested from mature female Xenopus leavis according to standard procedures (Goldin, A. L. (1992) Maintenance of Xenopus laevis and oocyte injection. Methods Enzymol. 207: 266-79.). To remove inner ovarian epithelium, thecal cell layer, and follicular cells, the ovarian pieces were placed in OR-2 solution: 82.5 mM NaCl, 2 mM KCl, 1 mM MgCl2, and 5 mM Hepes (pH 7.5) containing 1 mg/ml type I collagenase (Sigma, St Louis Mo., USA) either for 3 hours at 20° C. with gentle agitation or for 1 hour followed by manual defolliculization. The stage VI defolliculated oocytes were placed in ND96 solution (96 mM NaCl, 2 mM KCl, 1.8 mM CaCl2, 1 mM MgCl2, and 5 mM Hepes, pH7.5). Oocytes were injected with 40 nl of cRNA using the Nanoject system (Drummond Scientific, Broomall, Pa., USA). Injected oocytes were incubated at 20° C. in ND96 supplemented with […] gentamycin and […] pyruvate. Oocytes were allowed to express cRNA for two days before measurements were taken.
# (§3) Two-electrode voltage-clamp recordings were performed using the AxoClamp 2B amplifier (Axon Instruments, Foster City, Calif., USA). Microelectrodes were pulled from borosilicate glass capillaries (Word Precision Instruments, Inc., Sarasota, Fla., USA) on the P-97 micropipette puller Sutter Instruments, Novato, Calif., USA). […] Each oocyte was placed in RC-12 recording chamber (Warner Instrument Inc., Hamden, Conn., USA) or a Maltese cross chamber (ALA Scientific Instruments, Westbury, N.Y., USA) and clamped at −80 mV. Data were acquired at 1 kHz using Clampex software (Axon Instruments, Foster City, Calif., USA).
# (§4) Dose-response curves for agonists were generated by their applying the agonist in increasing concentrations followed by 3-9 min washes at each concentration. To determine EC50 and Hill coefficient agonist dose response curves were fit using the following equation: f(I)=(Imax[I]^n/(EC50^n+[I]^n))+Imin, where I is the normalized response to agonist at certain concentration, Imax is the maximal response elicited by a saturating concentration of agonist, EC50 is the concentration of agonist inducing half-maximal response, n is the Hill coefficient, and Imin is the normalized response at lowest agonist concentration.
# (§5) The mean and standard error of the mean of peak current responses of at least three oocytes per experiment are represented.
# (§6) All drugs were obtained from Sigma-Aldrich (St. Louis, Mo. USA) except imidicloprid (IMI) which was provided by Crompton Co. (Guelph, ON, Canada). Drugs were dissolved in ND96 except IMI, which was made as a stock solution in DMSO and diluted to working concentrations in ND96. If required, drug solutions were adjusted to pH 7.5 with either NaOH or HCl. Fresh solutions were prepared before measurements and stored at 4° C. for 1-5 days.
# [2] = target: ACC-2D6.3 channel (Caenorhabditis elegans, UniProt Q18812); assay: cell-based
# Chain of ACC-2D6.3 channel (Q18812 whole entry, looked up): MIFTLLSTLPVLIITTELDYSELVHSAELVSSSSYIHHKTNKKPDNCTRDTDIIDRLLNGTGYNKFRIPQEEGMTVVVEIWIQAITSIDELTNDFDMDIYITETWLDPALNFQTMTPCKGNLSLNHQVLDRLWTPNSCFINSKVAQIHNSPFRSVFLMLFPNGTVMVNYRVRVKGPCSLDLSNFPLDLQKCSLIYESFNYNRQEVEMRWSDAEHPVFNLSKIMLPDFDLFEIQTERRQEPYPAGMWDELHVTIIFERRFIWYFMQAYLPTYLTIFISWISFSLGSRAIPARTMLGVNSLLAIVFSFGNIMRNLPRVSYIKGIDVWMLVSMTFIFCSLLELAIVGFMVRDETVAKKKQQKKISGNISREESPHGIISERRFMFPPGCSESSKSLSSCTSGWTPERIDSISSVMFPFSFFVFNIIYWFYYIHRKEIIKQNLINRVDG
# Source text: as §1, §2, §3, §4, §5, §6
# [3] = system: ACC-3D10.5; assay: Two-electrode voltage-clamp of Xenopus oocytes injected with ACC-3D10.5 cRNA; assay type: cell-based, C. elegans; conditions: 1 mM
# Procedure: (§7) Oocytes were harvested from mature female Xenopus leavis according to standard procedures (Goldin, A. L. (1992) Maintenance of Xenopus laevis and oocyte injection. Methods Enzymol. 207: 266-79.). To remove inner ovarian epithelium, thecal cell layer, and follicular cells, the ovarian pieces were placed in OR-2 solution: 82.5 mM NaCl, 2 mM KCl, 1 mM MgCl2, and 5 mM Hepes (pH 7.5) containing 1 mg/ml type I collagenase (Sigma, St Louis Mo., USA) either for 3 hours at 20° C. with gentle agitation or for 1 hour followed by manual defolliculization. The stage VI defolliculated oocytes were placed in ND96 solution (96 mM NaCl, 2 mM KCl, 1.8 mM CaCl2, 1 mM MgCl2, and 5 mM Hepes, pH7.5). Oocytes were injected with 40 nl of cRNA using the Nanoject system (Drummond Scientific, Broomall, Pa., USA). Injected oocytes were incubated at 20° C. in ND96 supplemented with 100 mg/ml gentamycin and 550 mg/ml pyruvate. Oocytes were allowed to express cRNA for two days before measurements were taken.
# [4] = system: ACC-4E9.9; assay: Two-electrode voltage-clamp of Xenopus oocytes injected with ACC-4E9.9 cRNA; assay type: cell-based, C. elegans; conditions: 1 mM
# Procedure: as §7
# [5] = system: ACC-2D6.3+ACC-3D10.5; assay type: cell-based, C. elegans; conditions: 1 mM
# Procedure: as §7
# [6] = system: ACC-2D6.3+ACC-4E9.9; assay type: cell-based, C. elegans; conditions: 1 mM
# Procedure: as §7
# [7] = target: rat α9nAChRs (Rattus norvegicus, UniProt P43144); conditions: cited from earlier work
# Chain of rat α9nAChRs (P43144 26-479): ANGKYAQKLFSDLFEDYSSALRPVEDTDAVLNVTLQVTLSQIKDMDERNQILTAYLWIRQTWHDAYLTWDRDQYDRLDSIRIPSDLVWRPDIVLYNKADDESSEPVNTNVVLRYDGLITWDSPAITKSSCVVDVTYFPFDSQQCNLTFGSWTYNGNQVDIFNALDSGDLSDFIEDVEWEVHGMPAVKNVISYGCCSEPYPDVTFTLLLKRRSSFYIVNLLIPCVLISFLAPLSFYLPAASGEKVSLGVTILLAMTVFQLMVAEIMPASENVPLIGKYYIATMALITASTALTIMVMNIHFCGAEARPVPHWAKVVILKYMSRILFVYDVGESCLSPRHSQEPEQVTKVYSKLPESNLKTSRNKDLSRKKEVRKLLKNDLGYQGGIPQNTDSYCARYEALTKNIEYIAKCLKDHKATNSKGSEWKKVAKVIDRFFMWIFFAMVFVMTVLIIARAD
# [8] = target: Aplysia receptors mediating the slow desensitizing chloride-dependent response; conditions: cited from earlier work
# [9] = read-out: Agonist: percentage of maximal acetylcholine-elicited response
# [10] = concentration tested in brackets where printed
# [11] = concentration tested in brackets where printed, listed as d-tubocurarine
molecule,measurement,setting,value
"C[N+](C)(C)CCCCCC[N+](C)(C)C [C6, hexamethonium]",agonist action (in words),[1],simultaneously as an agonist and an antagonist
same,antagonist action (in words),[1],antagonists
same,activation at 200 µM,[1]; [9],0%
same,activation at 1000 µM,[1]; [9],10 ± 2.6%
same,Agonist: percentage of maximal acetylcholine-elicited response,[2],0%
same,antagonist action (in words),[2],antagonists
NCCCC(=O)O [GABA],response (in words),[1],did not respond
same,response (in words),[2]; 1 mM,did not respond
same,response (in words),[3],did not respond
same,response (in words),[4],did not respond
same,response (in words),[5],Neither did ACC-2D6.3+ACC-3D10.5 nor ACC-2D6.3+ACC-4E9.9 expressing oocytes respond
same,response (in words),[6],Neither did ACC-2D6.3+ACC-3D10.5 nor ACC-2D6.3+ACC-4E9.9 expressing oocytes respond
"O=[N+]([O-])NC1=NCCN1Cc1ccc(Cl)nc1 [IMI, imidacloprid]",Antagonist: percentage decrease in a response to acetylcholine,[1],0%
same,activation at 10 µM,"[1]; compound at 10 μM, read-out: Agonist: percentage of maximal acetylcholine-elicited response",0%
same,antagonist action (in words),[1]; [10],no effect
same,antagonist action (in words),[2],only partially blocked
CN1[C@@H]2CC[C@H]1C[C@@H](OC(=O)C(CO)c1ccccc1)C2 (stereo partly drawn) [atropine],IC50,[7],1 µM
same,agonist action (in words),[7],no agonistic
same,antagonist action (in words),[7],Antagonist
"COc1cc2c3cc1Oc1cc(ccc1O)C[C@@H]1c4c(cc(OC)c(O)c4Oc4ccc(cc4)C[C@@H]3N(C)CC2)CC[N+]1(C)C [d-TC, d-tubocurarine]",Antagonist: percentage decrease in a response to acetylcholine,[1],100^a ^ %
same,IC50,"[1]; Table 4, order of magnitude, read-out: IC50 (range or bound)",< 20 µM
same,Agonist: percentage of maximal acetylcholine-elicited response,[1]; compound at 20 μM,0%
same,antagonist action (in words),[1]; [10],Antagonist
same,antagonist action (in words),[1]; [11],irreversibly
same,Agonist: percentage of maximal acetylcholine-elicited response,[2]; compound at 20 μM,0%
same,antagonist action (in words),[2]; [10],Antagonist
same,antagonist action (in words),[2]; [11],irreversibly
same,IC50,"[2]; read-out: IC50 (range or bound), Table 4, order of magnitude",< 20 µM
same,IC50,[8]; Table 4,~40 µM
same,antagonist action (in words),[8],Antagonist
same,IC50,"[7]; Table 4, read-out: IC50",0.3 µM
same,antagonist action (in words),[7],Antagonist
"CO[C@H]1CC=C2CCN3CCC4=C(CC(=O)OC4)[C@]23C1 [dβe, dihydro-β-erythroidine]",IC50,"[1]; Table 4, order of magnitude, read-out: IC50 (range)",~100 µM
same,Agonist: percentage of maximal acetylcholine-elicited response,[1]; compound at 0.4 mM,0%
same,antagonist action (in words),[1]; [10],Antagonist
same,antagonist action (in words),"[1]; concentration tested in brackets where printed, listed as Dihydro-β-erythroidine",antagonist
same,antagonist action (in words),"[1]; concentration tested in brackets where printed, listed as dihydro-β-erythroidine",antagonists
same,Agonist: percentage of maximal acetylcholine-elicited response,[2],0%
same,IC50,[2],~10 µM
same,IC50,[8]; Table 4,~20 µM
same,antagonist action (in words),[8],Antagonist
same,IC50,"[7]; Table 4, read-out: IC50",24.2 µM
same,antagonist action (in words),[7],Antagonist
N[C@@H](CCC(=O)O)C(=O)O [glutamate],response (in words),[1],did not respond
same,response (in words),[2]; 1 mM,did not respond
same,response (in words),[3],did not respond
same,response (in words),[4],did not respond
same,response (in words),[5],Neither did ACC-2D6.3+ACC-3D10.5 nor ACC-2D6.3+ACC-4E9.9 expressing oocytes respond
same,response (in words),[6],Neither did ACC-2D6.3+ACC-3D10.5 nor ACC-2D6.3+ACC-4E9.9 expressing oocytes respond
NCC(=O)O [glycine],response (in words),[1],did not respond
same,response (in words),[3],did not respond
same,response (in words),[4],did not respond
NCCc1c[nH]cn1 [histamine],response (in words),[1],did not respond
same,response (in words),[3],did not respond
same,response (in words),[4],did not respond
C[C@@H]1O[C@H](C[N+](C)(C)C)C[C@H]1O [muscarine],Antagonist: percentage decrease in a response to acetylcholine,[1],51.6 ± 5.9%
same,IC50 (range),[1],IC50: mM range
same,agonist action (in words),[1],no agonistic activity
same,antagonist action (in words),[1],Antagonist; also recorded: weak antagonistic activity
same,activation at 1000 µM,[1]; [9],0%
same,IC50,[7],84 µM
same,agonist action (in words),[7],no agonistic activity
same,antagonist action (in words),[7],Antagonist
NCCc1c[nH]c2ccc(O)cc12 [serotonin],response (in words),[1],not observed
same,activation at 1000 µM,[1]; [9],0%
same,current response,[2]; 1 mM,10-30 nA
same,Agonist: percentage of maximal acetylcholine-elicited response,[2]; compound at 1 mM,3.7 ± 0.4%
same,response (in words),[3],not observed
same,response (in words),[4],not observed
same,response (in words),[5],Neither did ACC-2D6.3+ACC-3D10.5 nor ACC-2D6.3+ACC-4E9.9 expressing oocytes respond
same,response (in words),[6],Neither did ACC-2D6.3+ACC-3D10.5 nor ACC-2D6.3+ACC-4E9.9 expressing oocytes respond
O=C1C[C@@H]2OCC=C3CN4CC[C@]56c7ccccc7N1[C@H]5[C@H]2[C@H]3C[C@H]46 [strychnine],Antagonist: percentage decrease in a response to acetylcholine,[1],96 ± 1.2%
same,IC50,[1]; IC50 (block of channel),4.61 ± 0.27 µM
same,IC50,[1]; IC50 (range or bound),~10 µM
same,activation at 50 µM,[1]; [9],0%
same,Agonist: percentage of maximal acetylcholine-elicited response,[2],0%
same,antagonist action (in words),[2],Antagonist
same,estimated Hill coefficient (antagonist),[2],1.38±0.12
same,IC50,[2]; IC50 (block of channel),2.95 ± 0.8 µM
same,IC50,[2]; IC50 (range or bound),~10 µM
same,IC50,[7],0.0179 µM
α-bungarotoxin [α-BT],Agonist: percentage of maximal acetylcholine-elicited response,[1],0%
same,Antagonist: percentage decrease in a response to acetylcholine,[1],0%
same,antagonist action (in words),[1],no effect; also recorded: not blocked; also recorded: no antagonistic
same,Agonist: percentage of maximal acetylcholine-elicited response,[2],0%
same,Antagonist: percentage decrease in a response to acetylcholine,[2],0%
same,IC50,[8],~1 µM
same,antagonist action (in words),[8],Antagonist
same,antagonist action (in words),[7],Antagonist
same,IC50,[7]; read-out: IC50,0.004 µM
